From patent US20240210394A1, “MICROORGANISM CAPTURE FROM ANTIMICROBIAL-CONTAINING SOLUTION” (MOMENTUM BIOSCIENCE LIMITED, priority 2019, published 2024)
Values joined by “and” are separate entries in the source; they are usually repeats but may differ in a detail not shown here. Equal values may be shown once.

System: E. coli
Experiment: ETGA (microbial polymerase) qPCR after microbial capture (Magnitor test)
Type: cell-based
Set-up: ETGA results CV: unit not given here
Experimental: The Magnitor test consists of two microbial detection read-outs: • ETGA: detection of microbial polymerase from intact microbial cells • Confirm: detection of microbial DNA according to gram status (Gram Negative, Gram Positive, or Candida) […]
• E. coli o/n liquid culture 1E-3 dilution spiked into blood broth (6.25 μL o/n per mL: 244 μL o/n+39 mL blood broth) and […] out-growth performed in shaking incubator @ 37° C., 500 rpm • Following 2-hour outgrowth, samples produced by adding 1 mL specimen to 2 mL tube containing buffer (and 15 μL BioEstapor beads (Merck, Cat #BE-M 08/0.3) for Mag Beads sample-set): triplicate E. coli (EC) and No Spike Control (NSC) samples per test condition • 100 μL TVCs performed for NSC and E. coli (including dilutions of specimen to ensure countable plates)
• Samples centrifuged for 3 minutes at 9000×g (tube hinges facing outwards for pellet traceability) • Supernatants removed • 50 μL LM added to samples (approx. 10× pipette mixes to resuspend pellets) • Samples placed in shaking incubator at 900 rpm for 5 minutes and then 800 rpm for 55 minutes (26° C.) • Centrifuge samples at 17000×g for 1 minute before qPCR set-up
• Samples placed in shaking incubator at 900 rpm for 30 minutes (37° C.) • Samples placed on DynaMag-2 magnetic rack for 5 minutes and then supernatants removed • 50 μL LM added to samples (approx. 10× pipette mixes to resuspend pellets) • Samples placed in shaking incubator at 900 rpm for 5 minutes and then 800 rpm for 55 minutes (26° C.) • Magnetise samples for 3 minutes before qPCR set-up Manual qPCR set-up (10 μL reactions) for ETGA mastermix only
• E. coli o/n liquid culture set-up as standard in BacTec PLUS aerobic broth, then following day (approx. 16 hours later) 1.88 μL o/n added to 3 mL broth (equivalent to EC 1E-1 dilution added to broth at 6.25 μL/mL) and 2-hour outgrowth performed at 37° C., 500 rpm. • Following 2-hour outgrowth, E. coli preculture serially diluted (DF10) down to EC 1E-6 in either prewarmed blood-broth (BB), broth only (BO) or 1× buffer (B-BUF or Tris+NaCl). • 100 μL TVCs performed for all E. coli dilutions and NSCs
• 1 mL samples added to 2 mL tubes containing 112 μL of binding buffer (either B-BUF or Tris+NaCl: 10× for BB and BO sample-sets; and 1× for Buffer sample-sets)+15 μL beads (prewashed in respective buffer) • 30 mins shaking (1000 rpm) @ 37° C. • 5 mins magnetisation on DynaMag-2 • All s/n removed • 1 mL WB added and tubes mixed for 2 mins @ RT (1000 rpm) • 5 mins magnetisation on Dynmag-2 • All s/n removed • 50 μL LM added to tubes off magnet (5 μL Polymerase Control (PC) added to each PC sample tube) • ETGA reaction performed: 5 mins at 1000 rpm, then 55 mins at 800 rpm @26° C. • Manual qPCR set-up for ETGA and Confirm (10 μL reactions)
• E. coli o/n liquid cultures set-up as standard in BacTec PLUS aerobic broth (containing SPS) and Nutrient Broth (NB containing no SPS), then the following day (approx. 16 hours later) 1.88 μL o/n added to 3 mL broth (equivalent to EC 1E-1 dilution added to broth at 6.25 μL/mL) for each broth type (NB in morning and PLUS broth in afternoon), and 2-hour outgrowth incubations performed at 37° C., 500 rpm. • For each experiment (NB and PLUS), 1E-1 E. coli preculture diluted down to E. coli 1E-6 (DF10) in each 1× buffer (BUF-1 to BUF-6) • 100 μL TVCs performed using a separate EC dilution set performed in relevant broth (NB or PLUS broth) to prevent plate viability inconsistencies resulting from different 1× buffers […]

Sodium polyanethol sulfonate [SPS]
ETGA results Ave. ΔCt (WB SPS 0.01 %): 4.70
ETGA results CV (WB SPS 0.01 %): 56.59
ETGA results (WB SPS 0.01 %, EC 1-3 replicates, Time ZERO): 27.90 Ct and 29.12 Ct and 28.14 Ct
ETGA results (WB SPS 0.01 %, NSC 1-3 replicates, NoCt changed to 50 Ct): 33.39 Ct and 33.06 Ct and 32.81 Ct
ETGA results Ave. ΔCt (WB SPS 0.02 %): 7.28
ETGA results CV (WB SPS 0.02 %): 6.16
ETGA results (WB SPS 0.02 %, EC 1-3 replicates, Time ZERO): 26.41 Ct and 25.88 Ct and 27.24 Ct
ETGA results (WB SPS 0.02 %, NSC 1-3 replicates, NoCt changed to 50 Ct): 33.20 Ct and 33.77 Ct and 34.41 Ct
ETGA results Ave. ΔCt (WB SPS 0.04 %): 9.65
ETGA results CV (WB SPS 0.04 %): 4.40
ETGA results (WB SPS 0.04 %, EC 1-3 replicates, Time ZERO): 29.31 Ct and 29.43 Ct and 29.70 Ct
ETGA results (WB SPS 0.04 %, NSC 1-3 replicates, NoCt changed to 50 Ct): 38.93 Ct and 39.93 Ct and 38.54 Ct
ETGA results Ave. ΔCt (WB SPS 0.06 %): 15.74
ETGA results CV (WB SPS 0.06 %): 0.02
ETGA results (WB SPS 0.06 %, EC 1-3 replicates, Time ZERO): 28.70 Ct and 28.50 Ct and 27.62 Ct
ETGA results (WB SPS 0.06 %, NSC 1-3 replicates, NoCt changed to 50 Ct): 44.62 Ct and 44.11 Ct and 43.30 Ct
ETGA results Ave. ΔCt (WB SPS 0.08 %): 18.12
ETGA results CV (WB SPS 0.08 %): 0.01
ETGA results (WB SPS 0.08 %, EC 1-3 replicates, Time ZERO): 32.31 Ct and 31.94 Ct and 31.40 Ct
ETGA results (WB SPS 0.08 %, NSC 1-3 replicates, NoCt changed to 50 Ct): 50.00 Ct
ETGA results Ave. EC (WB SPS 0.1 %): 34.07 Ct
ETGA results Ave. NSC (WB SPS 0.1 %): 50.00 Ct
ETGA results Ave. ΔCt (WB SPS 0.1 %): 15.93
ETGA results CV (WB SPS 0.1 %): 0.02
ETGA results (WB SPS 0.1 %, EC 1-3 replicates, Time ZERO): 33.76 Ct and 34.37 Ct and 34.08 Ct
ETGA results (WB SPS 0.1 %, NSC 1-3 replicates, NoCt changed to 50 Ct): 50.00 Ct
